The values below come from patent US10323026B2, “Heterocyclic compound” (Takeda Pharmaceutical Company Limited, priority 2016, dated 2019).

SMILES strings stand for the structures.

The target in one test is T1, His-hMAGL (recombinant polyhistidine tagged human MAGL protein) (Homo sapiens, UniProt Q99685).
T1 construct: polyhistidine (His) (N); made in house; host or cells: E. coli BL21(DE3)
T1 sequence (Q99685 1-303): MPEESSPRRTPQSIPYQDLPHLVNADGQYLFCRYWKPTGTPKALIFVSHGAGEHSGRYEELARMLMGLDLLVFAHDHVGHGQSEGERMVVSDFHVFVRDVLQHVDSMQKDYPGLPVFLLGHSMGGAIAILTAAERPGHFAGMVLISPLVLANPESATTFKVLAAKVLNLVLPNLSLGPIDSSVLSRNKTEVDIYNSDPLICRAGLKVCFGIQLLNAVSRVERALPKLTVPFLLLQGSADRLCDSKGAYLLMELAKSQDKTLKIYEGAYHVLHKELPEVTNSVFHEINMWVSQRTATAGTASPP
Nature of the test: Measurement of MAGL inhibitory activity (RapidFire-mass spectrometry of arachidonic acid produced from 2-arachidonylglycerol). The test is classed as biochemical. The following applies: test compound 10 μM; His-hMAGL; substrate 2-arachidonylglycerol; 60 min preincubation. As for the experimental part: Furthermore, acetonitrile (50 μL) containing 3 μM arachidonic acid-d8 (Cayman Chemical Company) was added and the mixture was stirred.
The amount of arachidonic acid in the obtained enzyme reaction mixture was calculated by measuring by RapidFire-mass spectrometry and correcting by the amount of arachidonic acid-d8. High Throughput online solid phase extraction was performed using RapidFire 300™ system (Agilent Technologies, Inc.). Samples were loaded on SPE C4 cartridge (Agilent Technologies, Inc.) and desalted with 0.2 (v/v) % acetic acid (Wako Pure Chemical Industries, Ltd.) in ultrapure water/acetonitrile (70/30, v/v) at a flow rate of 1.5 mL/min, eluted at a flow rate of 0.5 mL/min with 0.2(v/v) % acetic acid dissolved in acetonitrile/ultrapure water (90/10, v/v), and injected into the mass spectrometry part. The injection needle was washed with ultrapure water (500 millisecond) and acetonitrile (500 millisecond) to minimize carry-over. […] The RapidFire300 system was controlled by RapidFire UI software version 3.6 (Agilent Technologies, Inc.).
The mass spectrometry of the resultant product was performed using API4000™ triple quadrupole mass spectrometer (AB SCIEX) equipped with an electrospray ion source (TurboIon Spray™) in a negative selected reaction monitoring (SRM) mode. The conditions of SRM are shown below. The parameters of the instrument were optimized as follows: capillary temperature 600° C., ion spray voltage −4.5 kV, collision gas 8, curtain gas 15 psi, ion source gas 1 60 psi, ion source gas 2 60 psi. The mass spectrometer was controlled by Analyst™ software version 1.5.1 (AB SCIEX). The peak area integration was analyzed using RapidFire integrator software version 3.6 (Agilent Technologies, Inc.).
MAGL inhibitory rate (%) was calculated according to the following calculation formula. (1-(arachidonic acid production amount of test compound addition group−arachidonic acid production amount of enzyme-free group)÷(arachidonic acid production amount of test compound-free group−arachidonic acid production amount of enzyme-free group))×100
On to `CC(Oc1ccc(F)cc1C(F)(F)F)C1CCN(C(=O)[C@H]2C[C@]3(COC(=O)N3)C2)CC1` (stereo partly shown) [Example 67, (2s,4s)-2-((4-(1-(4-fluoro-2-(trifluoromethyl)phenoxy)ethyl)piperidin-1-yl)carbonyl)-7-oxa-5-azaspiro[3.4]octan-6-one], for which the “% inhibition (10 μM)” value is recorded as 100%.

Turning to `CC(Oc1c(F)cc(F)cc1F)C1CCN(C(=O)[C@H]2C[C@]3(COC(=O)N3)C2)CC1` (stereo partly shown) [Example 87, (2s,4s)-2-((4-(1-(2,4,6-trifluorophenoxy)ethyl)piperidin-1-yl)carbonyl)-7-oxa-5-azaspiro[3.4]octan-6-one], the “% inhibition (10 μM)” value came to 100%.

Still in this test, the particulars now being: test compound 10 μM; His-hMAGL; substrate 2-arachidonylglycerol; 60 min preincubation; 10 µM.
Regarding `CC(Oc1c(F)ccc(F)c1F)C1CCN(C(=O)[C@H]2C[C@]3(COC(=O)N3)C2)CC1` (stereo partly shown) [Example 56, (2s,4s)-2-((4-(1-(2,3,6-trifluorophenoxy)ethyl)piperidin-1-yl)carbonyl)-7-oxa-5-azaspiro[3.4]octan-6-one], the “% inhibition (10 μM)” value is listed as 100%.

Take `CC(Oc1ccc(F)c(F)c1F)C1CCN(C(=O)[C@H]2C[C@]3(COC(=O)N3)C2)CC1` (stereo partly shown) [Example 81, (2s,4s)-2-((4-(1-(2,3,4-trifluorophenoxy)ethyl)piperidin-1-yl)carbonyl)-7-oxa-5-azaspiro[3.4]octan-6-one]: the “% inhibition (10 μM)” value stood at 100%.

Still in this test, the particulars now being: test compound 10 μM; His-hMAGL; substrate 2-arachidonylglycerol; 60 min preincubation; read-out: % inhibition (10 μM).
As a reminder, the inhibition is the change of the read-out against control, counted positive when it falls. Regarding `O=C1N[C@]2(CO1)C[C@H](C(=O)N1CC(COc3cc(Br)c(C(F)(F)F)cc3F)C1)C2` [Example 41, (2s,4s)-2-((3-((5-bromo-2-fluoro-4-(trifluoromethyl)phenoxy)methyl)azetidin-1-yl)carbonyl)-7-oxa-5-azaspiro[3.4]octan-6-one], the inhibition at 10 µM is 101%.

`CC1(C2CCN(C(=O)[C@H]3C[C@]4(CCC(=O)N4)C3)CC2)Cc2cc(F)ccc2O1` (stereo partly shown) [Example 5, (2r,4s)-2-((4-(5-fluoro-2-methyl-2,3-dihydro-1-benzofuran-2-yl)piperidin-1-yl)carbonyl)-5-azaspiro[3.4]octan-6-one]: the inhibition at 10 µM was determined as 100%.

`O=C1N[C@]2(CO1)C[C@H](C(=O)N1CC(COc3ccc(Cl)cc3Cl)C1)C2` [Example 79, (2s,4s)-2-((3-((2,4-dichlorophenoxy)methyl)azetidin-1-yl)carbonyl)-7-oxa-5-azaspiro[3.4]octan-6-one]: the inhibition at 10 µM stood at 100%.

As to `O=C1COC[C@]2(C[C@H](C(=O)N3CCC(COc4ccc(F)cc4Cl)CC3)C2)N1` [Example 25, (2s,4s)-2-((4-((2-chloro-4-fluorophenoxy)methyl)piperidin-1-yl)carbonyl)-8-oxa-5-azaspiro[3.5]nonan-6-one], the inhibition at 10 µM was 100%.

Turning to `O=C1N[C@]2(CO1)C[C@H](C(=O)N1CC(OCc3cc(Cl)c(F)c(Cl)c3)C1)C2` [Example 106, (2s,4s)-2-((3-((3,5-dichloro-4-fluorobenzyl)oxy)azetidin-1-yl)carbonyl)-7-oxa-5-azaspiro[3.4]octan-6-one], the inhibition at 10 µM amounted to 100%.

`CC(Oc1ccc(Cl)cc1F)C1CCN(C(=O)[C@H]2C[C@]3(CCC(=O)N3)C2)CC1` (stereo partly shown) [Example 17, (2r,4s)-2-((4-(1-(4-chloro-2-fluorophenoxy)ethyl)piperidin-1-yl)carbonyl)-5-azaspiro[3.4]octan-6-one]: the inhibition at 10 µM came out at 100%.

On to `Cc1cc(COCC2CN(C(=O)[C@H]3C[C@]4(COC(=O)N4)C3)C2)ccc1Cl` [Example 121, (2s,4s)-2-((3-(((4-chloro-3-methylbenzyl)oxy)methyl)azetidin-1-yl)carbonyl)-7-oxa-5-azaspiro[3.4]octan-6-one], for which the inhibition at 10 µM came out at 101%.

For the compound `O=C1N[C@]2(CO1)C[C@H](C(=O)N1CCC(COc3ccc(C(F)(F)F)cc3Cl)CC1)C2` [Example 19, (2s,4s)-2-((4-((2-chloro-4-(trifluoromethyl)phenoxy)methyl)piperidin-1-yl)carbonyl)-7-oxa-5-azaspiro[3.4]octan-6-one], the inhibition at 10 µM came out at 101%.

Consider `CC(Oc1ccc(C(F)(F)F)cc1F)C1CCN(C(=O)[C@H]2C[C@]3(COC(=O)N3)C2)CC1` (stereo partly shown) [Example 35, (2s,4s)-2-((4-(1-(2-fluoro-4-(trifluororoethyl)phenoxy)ethyl)piperidin-1-yl)carbonyl)-7-oxa-5-azaspiro[3.4]octan-6-one], for which the inhibition at 10 µM stood at 101%.

For the compound `CC(Oc1cc(F)c(F)cc1F)C1CCN(C(=O)[C@H]2C[C@]3(COC(=O)N3)C2)CC1` (stereo partly shown) [Example 40, (2s,4s)-2-((4-(1-(2,4,5-trifluorophenoxy)ethyl)piperidin-1-yl)carbonyl)-7-oxa-5-azaspiro[3.4]octan-6-one], the inhibition at 10 µM stood at 101%.

In the case of `Cc1ccc(COCC2CN(C(=O)[C@H]3C[C@]4(COC(=O)N4)C3)C2)cc1Cl` [Example 120, (2s,4s)-2-((3-(((3-chloro-4-methylbenzyl)oxy)methyl)azetidin-1-yl)carbonyl)-7-oxa-5-azaspiro[3.4]octan-6-one], the inhibition at 10 µM came to 100%.

`CC(c1ccccc1)(c1ccccc1)C1CCN(C(=O)[C@H]2C[C@]3(COC(=O)N3)C2)CC1` [Example 51, (2s,4s)-2-((4-(1,1-diphenylethyl)piperidin-1-yl)carbonyl)-7-oxa-5-azaspiro[3.4]octan-6-one]: the inhibition at 10 µM was found to be 101%.

Regarding `CCC1(COc2ccc(F)cc2Cl)CCN(C(=O)[C@H]2C[C@]3(COC(=O)N3)C2)CC1` [Example 44, (2s,4s)-2-((4-((2-chloro-4-fluorophenoxy)methyl)-4-ethylpiperidin-1-yl)carbonyl)-7-oxa-5-azaspiro[3.4]octan-6-one], the inhibition at 10 µM was 101%.

Regarding `CC(Oc1ccc(F)cc1F)C1CCN(C(=O)[C@H]2C[C@]3(COC(=O)N3)C2)CC1` (stereo partly shown) [Example 15, (2s,4s)-2-((4-(1-(2,4-difluorophenoxy)ethyl)piperidin-1-yl)carbonyl)-7-oxa-5-azaspiro[3.4]octan-6-one], the inhibition at 10 µM turned out to be 100%.

Turning to `O=C1N[C@]2(CO1)C[C@H](C(=O)N1CC(COc3c(Cl)cc(F)cc3Cl)C1)C2` [Example 75, (2s,4s)-2-((3-((2,6-dichloro-4-fluorophenoxy)methyl)azetidin-1-yl)carbonyl)-7-oxa-5-azaspiro[3.4]octan-6-one], the inhibition at 10 µM amounted to 100%.

As to `CC1(C2CCN(C(=O)[C@H]3C[C@]4(COC(=O)N4)C3)CC2)Cc2cc(F)cc(F)c2O1` (stereo partly shown) [Example 16, (2s,4s)-2-((4-(5,7-difluoro-2-methyl-2,3-dihydro-1-benzofuran-2-yl)piperidin-1-yl)carbonyl)-7-oxa-5-azaspiro[3.4]octan-6-one], the inhibition at 10 µM was determined as 100%.

On to `CC1(C(F)(F)c2ccc(F)cc2Cl)CCN(C(=O)[C@H]2C[C@]3(COC(=O)N3)C2)CC1` [Example 52, (2s,4s)-2-((4-((2-chloro-4-fluorophenyl)(difluoro)methyl)-4-methylpiperidin-1-yl)carbonyl)-7-oxa-5-azaspiro[3.4]octan-6-one], for which the inhibition at 10 µM was found to be 100%.

With `N#Cc1cc(C(F)(F)F)ccc1OCC1CCN(C(=O)[C@H]2C[C@]3(COC(=O)N3)C2)CC1` [Example 128, 2-((1-(((2s,4s)-6-oxo-7-oxa-5-azaspiro[3.4]oct-2-yl)carbonyl)piperidin-4-yl)methoxy)-5-(trifluoromethyl)benzonitrile], the inhibition at 10 µM amounted to 100%.

As to `O=C1N[C@]2(CO1)C[C@H](C(=O)N1CC(CC(F)(F)c3ccc(C(F)(F)F)cc3F)C1)C2` [Example 91, (2s,4s)-2-((3-(2,2-difluoro-2-(2-fluoro-4-(trifluoromethyl)phenyl)ethyl)azetidin-1-yl)carbonyl)-7-oxa-5-azaspiro[3.4]octan-6-one], the inhibition at 10 µM was determined as 100%.

In the case of `O=C1N[C@]2(CO1)C[C@H](C(=O)N1CC(/C=C(\F)c3ccc(C(F)(F)F)c(Cl)c3)C1)C2` [Example 111, (2s,4s)-2-((3-((Z)-2-(3-chloro-4-(trifluoromethyl)phenyl)-2-fluorovinyl)azetidin-1-yl)carbonyl)-7-oxa-5-azaspiro[3.4]octan-6-one], the inhibition at 10 µM stood at 100%.

Take `CC(Oc1c(F)ccc(F)c1F)C1CCN(C(=O)[C@H]2C[C@]3(COC(=O)N3)C2)CC1` (stereo partly shown) [Example 36, (2s,4s)-2-((4-(1-(2,3,6-trifluorophenoxy)ethyl)piperidin-1-yl)carbonyl)-7-oxa-5-azaspiro[3.4]octan-6-one]: the inhibition at 10 µM was determined as 101%.
